Results published in patent publication US20070154962A1, “Bcl-2 promoted cell death” (priority 2005, published 2007).

What was measured:
Format in all cases: cell-based
PC12 cells [1] = test: Flow cytometry of sub-G1 nuclei from PC12 cells transiently transfected with Bcl-2-GFP and exposed to H2O2; conditions: treated cells compared with untreated controls; FIG. 5
Description: FIG. 5: Flow cytometry measuring apoptotic cells from PC12 cells transiently transfected with Bcl-2-GFP with and without H2O2 treatment.
An alternative explanation would be that Bcl-2 relocates to the nucleus in response to apoptosis. […] However, there was no increase in the percent of sub-G1 nuclei carrying Bcl-2-GFP in cells treated with H2O2 as compared to untreated cells. In fact, there was a paradoxical decrease, which is expected if one appreciates that the number of sub-G1 nuclei increased after H2O2 treatment without a concomitant increase of nuclear Bcl-2-GFP. Therefore, nuclear association of Bcl-2 was […] apoptosis.

[2] = system: Human leukemia cells (HL-60); test: Cell death as LDH release in HL-60 cells transiently transfected with BH4 peptide-expressing vector; conditions: HL-60, 48 after transfection, vs. Flag or BH4Gly; FIG. 24
Procedure: The extent of cell death was assessed 48 after transfection as release of LDH in the cell culture medium.
The extent of cell death was assessed 48 after transfection as release of LDH in the cell culture medium. Statistical difference was vs. Flag or BH4Gly (Two-tailed Student “t” test; N=4-7 independent measurements per group).

[3] = system: PC12 cells stably expressing vector or Bcl-2; test: Cell survival (renilla luciferase) of stably transfected PC12 cells transiently transfected with BH4 peptide vector; conditions: FIG. 19
Procedure: FIG. 19: Cell survival was measured in PC12 cells stably expressing vector or Bcl-2. These two cell lines were transiently co-transfected with luciferase and either vector, BH4 domain, or BH4Gly.
(§1) The overall rationale of the experiment was to determine if domain interference disrupted Bcl-2/FKBP38 binding, changed Bcl-2's cellular localization (i.e., result in Bcl-2 misplacement at the nucleus) and ultimately promoted Bcl-2-triggered apoptosis. […] The rationale for using a peptide larger that the BH4 domain itself was to provide structure stability to the alpha-helix of the BH4 domain (AA 11-25) through sufficient flanking regions. Cells were further co-transfected with renilla luciferase so as to determine the extent of their survival. […] It is important to note that PC12 cells expressing Bcl-2 cells diddo not depend on Bcl-2 for their survival and therefore the effect of the BH4 peptide was not due to abolishment of Bcl-2 protection. Rather, it reflected an active induction of apoptosis by Bcl-2, triggered by the BH4 peptide. The possibility that PC12 cells expressing Bcl-2 may have undergone selection during the establishment of stable transfection that could have rendered them non-specifically sensitive to the BH4 peptide was excluded.

PC12 cells [4] = test: Cell survival of naive PC12 cells transiently co-transfected with Bcl-2 or vector and BH4 or BH4Gly; conditions: transient (24 hr) transfection of the BH4 vector alone, without Bcl-2, FIG. 20
Procedure: FIG. 20: Cell survival was measured in PC12 cells transiently co-transfected with Bcl-2 or vector, and either vector, BH4 or BH4Gly.
as §1

Compound	sub-G1 (apoptotic) nuclei (PC12 cells [1])	cell death (release of LDH in the cell culture medium) [2]	induction of apoptosis / survival ([3]; PC12 cells not expressing Bcl-2 (empty vector pmKitNeo))	survival of cells (renilla luciferase) ([3]; PC12 cells stably expressing Bcl-2, compared with BH4-transfected cells stably expressing empty pmKitNeo)	cell survival (PC12 cells [4])
OO [H2O2]	substantial increase	–	–	–	–
BH4 peptide: vector-expressed peptide identical to the N-terminal 30 amino acids of Bcl-2, including the 11-25 BH4 domain (MAHAGRTGYDNREIVMKYIHYKLSQRGYEW; UniProt P10415 1-30, looked up, fragment)	–	effective in inducing cell death	unaffected	significantly lower	did not affect cell survival
